Patent US4298529A, “Alkoxyimino dioxy butyric acid derivatives” (Fujisawa Pharmaceutical Co., Ltd., priority 1978, dated 1981)
Converted amounts (≈) assume the structure as drawn. Read-outs that look alike come from different tables or passages of the source.

Assays:
Serratia Marcescens 58 [1] = assay: Protecting effect against experimental infections in mice; format: in vivo; settings: sc, 96 h, ICR mice, i.p. challenge 1.2 × 10^7 cells/mouse, s.c. two divisional doses at 1 hr. and 3 hrs. after infection
Method: (§1) Male ICR strain mice aged 4 weeks, each weighing 18.5-21.5 g. were used in groups of 10 mice. The test bacteria were cultured overnight at 37° C. on Trypticase-soy agar and then suspended in 5% mucin to obtain the suspension corresponding to each challenge cells. Mice were inoculated intraperitoneally with 0.5 ml. of the suspension. A solution of test compound was given subcutaneously to the mice in various dosage one hour after the challenge. The ED50 values were calculated from the number of surviving mice for each dosage after four days of observation.
^*3 treated with two divisional doses at 1 hr. and 3 hrs. after […]

Proteus rettgeri 24 [2] = assay: MIC against the infecting strain; format: cell-based; settings: Providencia rettgeri, 24, 20 h
Method: (§2) In vitro antibacterial activity was determined by the two-fold agar-plate dilution method as described below.
(§3) One loopful of the 100-fold dilution of an overnight culture of each test strain in Trypticase-soy broth was streaked on heart infusion agar (HI-agar) containing graded concentrations of the test compound and incubated at 37° C. for 20 hours. The minimal inhibitory concentration (MIC) was expressed in μg/ml.
(§4) ^*2 100fold dilution of the overnight

Escherichia coli 54 [3] = assay: MIC against the infecting strain; format: cell-based; settings: Escherichia coli, 54, 20 h
Method: as §2, §3, §4

Serratia Marcescens 58 [4] = assay: MIC against the infecting strain; format: cell-based; settings: 20 h
Method: as §2, §3, §4

Klebsiella pneumoniae 39 [5] = assay: MIC against the infecting strain; format: cell-based; settings: Klebsiella pneumoniae, 39, 20 h
Method: as §2, §3, §4

Proteus rettgeri 24 [6] = assay: Protecting effect against experimental infections in mice; format: in vivo; settings: Providencia rettgeri, 24, sc, 96 h; ICR mice, i.p. challenge 9.9 × 10^6 cells/mouse, s.c. one hour after challenge, survival after four days
Method: as §1

Escherichia coli 54 [7] = assay: as above; format: in vivo; settings: Escherichia coli, 54, sc, 96 h; ICR mice, i.p. challenge 1.1 × 10^7 cells/mouse, s.c. one hour after challenge, survival after four days
Method: as §1

Klebsiella pneumoniae 39 [8] = assay: as above; format: in vivo; settings: Klebsiella pneumoniae, 39, sc, 96 h; ICR mice, i.p. challenge 8 × 10^6 cells/mouse, s.c. one hour after challenge, survival after four days
Method: as §1

Acute toxicity in rats = assay: Acute toxicity in rats; parameters: species or system rat (ICL-SD strain); settings: rat, in vivo, 7 days observation
Method: Ten male and 10 female rats aged 6 weeks (ICL-SD strain) were used per group. Test compound dissolved in distilled water was given subcutaneously and intravenously to the animals. […] The LD50 values were calculated from the number of dead animals by the Litchfield-Wilcoxon method.

Klebsiella pneumoniae 20 = assay: In vitro antibacterial activity, two-fold agar-plate dilution method; format: cell-based; settings: HI-agar, 37° C., 20 hours, 100-fold diluted overnight culture
Method: as §3, with “In vitro antibacterial activity was determined by the two-fold agar-plate dilution method as described below. One” for “One”

[9] = tested on: Escherichia coli. NIHJ JC-2; assay: as above; format: cell-based; settings: NIHJJC2, HI-agar, 37° C., 20 hours, 100-fold diluted overnight culture
Method: as §3, with “In vitro antibacterial activity was determined by the two-fold agar-plate dilution method as described below. One” for “One”

Serratia marcescens 35 = assay: as above; format: cell-based; settings: HI-agar, 37° C., 20 hours, 100-fold diluted overnight culture
Method: as §3, with “In vitro antibacterial activity was determined by the two-fold agar-plate dilution method as described below. One” for “One”

[10] = tested on: Pseudomonus aeruginosa NCTC-10490; assay: as above; format: cell-based; settings: HI-agar, 37° C., 20 hours, 100-fold diluted overnight culture
Method: as §3, with “In vitro antibacterial activity was determined by the two-fold agar-plate dilution method as described below. One” for “One”

[11] = tested on: Proteus vulgaris IAM-1025; assay: as above; format: cell-based; settings: IAM1025, HI-agar, 37° C., 20 hours, 100-fold diluted overnight culture
Method: as §3, with “In vitro antibacterial activity was determined by the two-fold agar-plate dilution method as described below. One” for “One”

Proteus mirabilis 18 = assay: as above; format: cell-based; settings: HI-agar, 37° C., 20 hours, 100-fold diluted overnight culture
Method: as §3, with “In vitro antibacterial activity was determined by the two-fold agar-plate dilution method as described below. One” for “One”

[12] = tested on: Staphylococcus aureus 209P JC-1; assay: as above; format: cell-based; settings: HI-agar, 37° C., 20 hours, 100-fold diluted overnight culture
Method: as §3, with “In vitro antibacterial activity was determined by the two-fold agar-plate dilution method as described below. One” for “One”

[13] = inoculum size 10^0 (overnight culture)
[14] = inoculum size 10^-2 (100fold dilution of the overnight culture)
[15] = inoculum size 10^0 (overnight culture), read-out: MIC

| SMILES | ED50 (Serratia Marcescens 58 [1]) | MIC (Proteus rettgeri 24 [2]; [13]) | MIC (Proteus rettgeri 24 [2]; [14]) | MIC (Escherichia coli 54 [3]; [13]) | MIC (Escherichia coli 54 [3]; [14]) | MIC (Serratia Marcescens 58 [4]; [15]) | MIC (Klebsiella pneumoniae 39 [5]; [13]) | MIC (Klebsiella pneumoniae 39 [5]; [14]) | ED50 (Proteus rettgeri 24 [6]) | ED50 (Escherichia coli 54 [7]) | ED50 (Klebsiella pneumoniae 39 [8]) | other results |
| --- | --- | --- | --- | --- | --- | --- | --- | --- | --- | --- | --- | --- |
| CO/N=C(\C(=O)NC1C(=O)N2C(C(=O)O)=CCSC12)c1csc(N)n1 (stereo not drawn) [Compound 1, 7-[2-(2-aminothiazol-4-yl)-2-methoxyiminoacetamido]-3-cephem-4-carboxylic acid (syn isomer)] | 3.56 mg/kg | 1.56 µg/mL (≈ 4.07 µM) | ≤ 0.025 µg/mL | 0.78 µg/mL (≈ 2.03 µM) | 0.05 µg/mL (≈ 0.13 µM) | 25 µg/mL (≈ 65.2 µM) | 0.39 µg/mL (≈ 1.02 µM) | ≤ 0.025 µg/mL | 0.39 mg/kg | 0.95 mg/kg | < 0.98 mg/kg | MIC (Serratia Marcescens 58 [4]; inoculum size 10^-2 (100fold dilution of the overnight culture), read-out: MIC): 0.39 µg/mL (≈ 1.02 µM); LD50 at 168 h (Acute toxicity in rats; iv, female, i.v., read-out: LD50 i.v.): > 8000 mg/kg; LD50 at 168 h (Acute toxicity in rats; iv, male, i.v., read-out: LD50 i.v.): ~8000 mg/kg; LD50 at 168 h (Acute toxicity in rats; sc, female, s.c., read-out: LD50 s.c.): > 8000 mg/kg; LD50 at 168 h (Acute toxicity in rats; sc, male, s.c., read-out: LD50 s.c.): > 8000 mg/kg; MIC (Klebsiella pneumoniae 20): ≤ 0.025 µg/mL; MIC [9]: ≤ 0.025 µg/mL; MIC (Serratia marcescens 35): 1.56 µg/mL (≈ 4.07 µM); MIC [10]: 0.39 µg/mL (≈ 1.02 µM); MIC [11]: ≤ 0.025 µg/mL; MIC (Proteus mirabilis 18): ≤ 0.025 µg/mL; MIC [12]: 6.25 µg/mL (≈ 16.3 µM) |
| CO/N=C(\C(=O)NC1C(=O)N2C(C(=O)O)=C(COC(C)=O)CSC12)c1csc(N)n1 (stereo not drawn) [Reference, 7[2(2-Amino-4-thiazolyl)-2-methoxyiminoacetamido] cephalospolanic acid (syn isomer), reference compound] | 31.4 mg/kg | 50 µg/mL (≈ 110 µM) | 0.1 µg/mL (≈ 0.22 µM) | 3.13 µg/mL (≈ 6.87 µM) | 0.1 µg/mL (≈ 0.22 µM) | 50 µg/mL (≈ 110 µM) | 3.13 µg/mL (≈ 6.87 µM) | 0.05 µg/mL (≈ 0.11 µM) | 1.17 mg/kg | 2.8 mg/kg | 0.995 mg/kg | MIC (Serratia Marcescens 58 [4]): 1.56 µg/mL (≈ 3.43 µM) |
